Measured values as given in US20240082417A1, “PROTEIN-POLYMER DRUG CONJUGATES” (priority 2022, published 2024).
Non-standard residues stand in square brackets, D forms with d. Residues, ends and D or L forms follow the SMILES beside them. *: point of attachment. Dolaproine = CO[C@@H]([C@@H]1CCCN1)[C@@H](C)C(=O)O; Dil = CC[C@H](C)[C@H](NC)[C@@H](CC(=O)O)OC; NMe2Val = CC(C)[C@@H](C(=O)*)N(C)C; NH(3-hydroxypropyl) = OCCCN*

What was measured:
[1] = Tolerability of Auristatin F-hydroxypropylamide (MTD study); format: in vivo, mouse
Description: The vehicle control group received physiological saline.

[2] = target: 5T4 antigen on the cell surface (A431 cells and MDA-MB-231-5T4 OE cells) (human) (UniProt Q13641); assay: flow cytometry (MFI) on 5T4-expressing cells at 5 µg/mL, anti-Fc-FITC detection
Sequence of UniProt Q13641 (Q13641 32-420): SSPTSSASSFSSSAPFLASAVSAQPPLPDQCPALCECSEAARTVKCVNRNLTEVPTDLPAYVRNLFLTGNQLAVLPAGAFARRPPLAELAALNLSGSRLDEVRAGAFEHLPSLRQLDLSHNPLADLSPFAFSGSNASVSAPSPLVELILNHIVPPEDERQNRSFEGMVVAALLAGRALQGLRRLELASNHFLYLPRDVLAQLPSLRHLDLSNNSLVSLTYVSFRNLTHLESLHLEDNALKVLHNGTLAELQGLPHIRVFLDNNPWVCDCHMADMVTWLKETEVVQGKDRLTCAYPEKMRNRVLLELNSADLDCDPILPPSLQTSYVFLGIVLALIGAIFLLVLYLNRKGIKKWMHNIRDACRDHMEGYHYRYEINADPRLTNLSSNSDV

fold less binding than the anti-5T4 scFvFc molecules [2] [fold] | Compound | Animals survived by the end of the study (Day 21) ([1]; single IV dose 3.2 mg/kg) | Tolerability ([1]; single IV dose 4.7 mg/kg)
 | CC[C@H](C)[C@@H]([C@@H](CC(=O)N1CCC[C@H]1[C@H](OC)[C@@H](C)C(=O)N[C@@H](Cc1ccccc1)C(=O)NCCCO)OC)N(C)C(=O)[C@@H](NC(=O)[C@H](C(C)C)N(C)C)C(C)C [AF-HPA, auristatin F hydroxypropyl amide] (NMe2Val-V[Dil][Dolaproine]F-{NH(3-hydroxypropyl)}) | 2 out of 6 | exceeded the maximum tolerated dose
200 | unrelated scFvFc fusion protein |  | 
